US20240207421A1, “NERVE TARGETING PEPTIDES AND METHODS OF USE” (ALUME BIOSCIENCES, INC., priority 2020, published 2024)

Test system: Laminin 421/521
Assay: Phage display library screening (Example 2), NEB laminin-binding peptides
Parameters: species or system human
Details: Laminin 421/521, not 211 and 411; combined unique sequence count, Python/R script analysis
Experimental: Phage display library screens were used to identify peptides that bind to target proteins (including specific laminin trimers) that are expressed in human nerves, as described in Table 3. These screens were also carried out to identify peptides that could bind selectively to nerves versus muscle. Such peptides could therefore be useful for systemic in-vivo labeling of nerves during fluorescence assisted surgery. Specifically, m 13 phage libraries expressing 7 or 12 random amino acid peptides, or a cyclic peptide CX7C, on the N-terminus of the minor coat protein pIII (New England Biolabs; NEB) were processed through multiple rounds of selection for binding to target proteins expressed in nerves, or to excised human nerves, nerve extracts, or muscle, as described further below.
For screening against the specified target proteins in Table 1, including LN211, LN411, LN421, and LN521, the phage library was processed by up to 4 binding and wash cycles. For selection, phage libraries were incubated for up to 24 hours at 4° C. in 96 well plates that had been coated with one of the target proteins. Plates were then washed with PBS and phage were eluted using 0.2M glycine pH 2.0. Phage supernatants where then neutralized with Tris pH 9.0 prior to plating on TGI bacteria and LB agar plates. Colonies were counted to determine titer followed by DNA preparation of pools of phage and NextGen sequencing. After rounds of selection, phage were pooled and amplified for iterative selection. Phage that were bound at each round were sequenced. NextGen sequencing of pools after 2, 3 and 4 rounds of selection was used to isolate candidate sequences that were analyzed further to identify those that specifically bound each unique target protein.
For all NEB sequence datasets, a python script was used to translate, trim, and filter the peptide sequences (see details above). A python script was used to group peptides from different assays according to laminin complex binding (laminin complex 211, 411, 421, or 521) and combine the unique sequence counts for each peptide. An R script was written to merge the peptide sequences from different data files and determine peptides that specifically bind one laminin complex and not the others, or that bind both laminin 421 and 521 but not 211 and 411.

Substance	Count
CTPRSATLC (Laminin 421/521-binding peptide)	37
WEEHRVEILPDV (Laminin 421/521-binding peptide)	38
VPSYILR (Laminin 421/521-binding peptide)	30
ATSKYPNSWAQT (Laminin 421/521-binding peptide)	80
CSLANPATC (Laminin 421/521-binding peptide)	52
WPMMQTR (Laminin 421/521-binding peptide)	29
IDLSLRS (Laminin 421/521-binding peptide)	29
CSHHKLKQC (Laminin 421/521-binding peptide)	359
LQSNAADHHQGM (Laminin 421/521-binding peptide)	75
KQELSDNLASHR (Laminin 421/521-binding peptide)	50
WDLPTLRKTKQA (Laminin 421/521-binding peptide)	114
TAPRWTQ (Laminin 421/521-binding peptide)	30
CGITQTTTC (Laminin 421/521-binding peptide)	55
CTSKLARHC (Laminin 421/521-binding peptide)	45
DGANMENIAPAN	27
CFQPKMNSC (Laminin 421/521-binding peptide)	42
VPVFLDQARVMK (Laminin 421/521-binding peptide)	53
WNANYGTMTRHA (Laminin 421/521-binding peptide)	92
GGGYHIFGPLVT (Laminin 421/521-binding peptide)	43
LGYGQGTPHRSN (Laminin 421/521-binding peptide)	30
GSGFRNEEHSAH (Laminin 421/521-binding peptide)	51
CTWKHRDNC (Laminin 421/521-binding peptide)	30
GWIQDTFVLGRS (Laminin 421/521-binding peptide)	40
ALGGEPRKAYQR (Laminin 421/521-binding peptide)	45

Substance	Count
TFAAAQAELIMV (Laminin 421/521-binding peptide)	38
STNVQRA (Laminin 421/521-binding peptide)	28
LGSSRSPSSFLG (Laminin 421/521-binding peptide)	29
ETYKVTRVISPW (Laminin 421/521-binding peptide)	50
KPILWNRSLNAL (Laminin 421/521-binding peptide)	52
IDQSGLQKSGMK (Laminin 421/521-binding peptide)	29
GPKNHHQ (Laminin 421/521-binding peptide)	51
WVAAERR (Laminin 421/521-binding peptide)	115
GSLDMGNNKQPV (Laminin 421/521-binding peptide)	62
CLNQKWEAC (Laminin 421/521-binding peptide)	64
VIADQSKSAVAV (Laminin 421/521-binding peptide)	27
AVRPLGLPDNHR (Laminin 421/521-binding peptide)	29
WAYTDYM (Laminin 421/521-binding peptide)	35
CGETTAGKC (Laminin 421/521-binding peptide)	33
SFRNLEKLSLWS (Laminin 421/521-binding peptide)	50
CMNKIQRDC (Laminin 421/521-binding peptide)	131
DSLYRGMHQPRI (Laminin 421/521-binding peptide)	29
VYRNGGGLPLTA (Laminin 421/521-binding peptide)	34
QINWKQADKNAD (Laminin 421/521-binding peptide)	33
AWNGNRS (Laminin 421/521-binding peptide)	47
CNSWKAAKC (Laminin 421/521-binding peptide)	29
QGWEFQVPARHS (Laminin 421/521-binding peptide)	30
QALRTNYSPLNS (Laminin 421/521-binding peptide)	32
VVPSWPSVHRPP (Laminin 421/521-binding peptide)	31

Substance	Count
TTNGVPGHDRSP (Laminin 421/521-binding peptide)	46
SLAVANTRFMIR (Laminin 421/521-binding peptide)	49
CKWTQLWGC (Laminin 421/521-binding peptide)	40
CPMHQSKTC (Laminin 421/521-binding peptide)	28
CSSQAKRSC (Laminin 421/521-binding peptide)	31
GPMLKNLSDAVT (Laminin 421/521-binding peptide)	31
LARSSIMAANNV (Laminin 421/521-binding peptide)	42
GSPEKRT (Laminin 421/521-binding peptide)	30
WPVRNLL (Laminin 421/521-binding peptide)	67
HQSLAGVPWSRH (Laminin 421/521-binding peptide)	53
ANRYLAS (Laminin 421/521-binding peptide)	40
GQPRNIHLPGTH (Laminin 421/521-binding peptide)	40
LLAGPFR (Laminin 421/521-binding peptide)	44
ETGGLAYGSGQK (Laminin 421/521-binding peptide)	28
GDVITAYINPWP (Laminin 421/521-binding peptide)	39
RLVTASMVSPSF (Laminin 421/521-binding peptide)	95
ASHSRPLMNYAP (Laminin 421/521-binding peptide)	49
LGHQNGGRADMW (Laminin 421/521-binding peptide)	35
WGWNGANMSPRG (Laminin 421/521-binding peptide)	31
CHNADNNGC (Laminin 421/521-binding peptide)	32
HTQIHRL (Laminin 421/521-binding peptide)	28
MTNSGAK (Laminin 421/521-binding peptide)	35
GFADVIHRKWSS (Laminin 421/521-binding peptide)	53
AKTQAPSNWSGV (Laminin 421/521-binding peptide)	43

Substance	Count
EVERILTPHVNN (Laminin 421/521-binding peptide)	29
TILKPAAQGFAD (Laminin 421/521-binding peptide)	27
KFADTKLTSLRY (Laminin 421/521-binding peptide)	28
SLNTTWVSPMMK (Laminin 421/521-binding peptide)	37
HQSVTGVRSHFH (Laminin 421/521-binding peptide)	27
NHDQGSLTRWRS (Laminin 421/521-binding peptide)	31
NNNAAMQNHGVR (Laminin 421/521-binding peptide)	51
DGQVSDHSYVQW (Laminin 421/521-binding peptide)	101
QPTPSQIKFTRT (Laminin 421/521-binding peptide)	28
HPAWADFFTMSS (Laminin 421/521-binding peptide)	29
TFGSGRSMPIQY (Laminin 421/521-binding peptide)	34
CTGRISKHC (Laminin 421/521-binding peptide)	43
YTPRNQL (Laminin 421/521-binding peptide)	55
SYDGTMLKQVRL (Laminin 421/521-binding peptide)	36
NGHEVQSRAANR (Laminin 421/521-binding peptide)	29
WTKHNTPAHHLS (Laminin 421/521-binding peptide)	89
SVQTPMWRSLVG (Laminin 421/521-binding peptide)	28
GEPLTRFPNSDS (Laminin 421/521-binding peptide)	52
CTKSPSNSC (Laminin 421/521-binding peptide)	58
KASIAYD (Laminin 421/521-binding peptide)	30
TSAVSLR (Laminin 421/521-binding peptide)	27
LGPSTQGAGQTR (Laminin 421/521-binding peptide)	38
CKSPIKGTC (Laminin 421/521-binding peptide)	27
CHRTYNSTC (Laminin 421/521-binding peptide)	46
